Source: patent US9163035B2, “Melonine bisindole compounds, pharmaceutical compositions, preparation method and use thereof” (Kunming Institute of Botany, The Chinese Academy of Sciences, priority 2009, dated 2015)
Like-named read-outs stand apart in the source and are kept apart here.

Legend:
[1] = tested on: SK-BR-3, human breast cancer cell strain; experiment: IC50 test on tumor cells (MTT), SK-BR-3; type: cell-based; conditions: SK-BR-3, MTT, 48 h, read-out: Half Inhibitory concentrations (IC50) on human tumor cell strain growth
Experimental: (§1) The melonines A, B, C and D as prepared in Example 1 were separately dissolved with dimethyl sulfoxide (DMSO) to form 1 mg/ml storage solutions, stored away from light for standby use.
(§2) Cisplatin was used as positive control.
(§3) (1) Inoculating cells: preparing cell suspension with culture medium comprising 10% fetal bovine serum (DMEM or RMPI1640), inoculating 96 wells plate with 10000-20000 cells per well (100 μl per well); if adherent cells are needed, inoculation and culture will be conducted 12 h in advance.
(§4) (2) adding a solution of compound to be tested (compound monomer of fixed concentration 40 μM for primary screening, crude extract of 100 μg/ml for primary screening, setting 5 concentrations for gradient repetitive screening for those compounds with a tumor cell growth inhibition rate of about 50% at the concentration for primary screening), final volume of 200 μl per well, and setting 3 repetitive wells for each treatment.
(§5) (3) Developing: culturing at 37° C. for 48 h, adding 20 μl of MTT solution to each well, continually incubating for 4 h, terminating cultivation, carefully discarding supernatant 100 μl to avoid cell lose, adding 20% SDS 100 μl to each well, incubating overnight (37° C.) to completely dissolve crystal.
(§6) (4) colorimetric analysis: selecting 595 nm wavelength, reading light absorption value of each well by […] (Bio-Rad 680), recording results, plotting cell growth curve using concentration as abscissa and cell survival rate as ordinate, and calculating IC50 value of compound using Reed and Muench method.
(§7) (5) Positive control: cisplatin.

[2] = tested on: A549, human lung cancer cell strain; experiment: IC50 test on tumor cells (MTT), A549; type: cell-based; conditions: 48 h, read-out: Half Inhibitory concentrations (IC50) on human tumor cell strain growth
Experimental: as §1, §2, §3, §4, §5, §6, §7

[3] = tested on: PANC-1, human pancreatic cancer cell strain; experiment: IC50 test on tumor cells (MTT), PANC-1; type: cell-based; conditions: PANC-1, MTT, 48 h, read-out: Half Inhibitory concentrations (IC50) on human tumor cell strain growth
Experimental: as §1, §2, §3, §4, §5, §6, §7

[4] = tested on: SMMC7721, human liver cancer cell strain; experiment: IC50 test on tumor cells (MTT), SMMC7721; type: cell-based; conditions: read-out: Half Inhibitory concentrations (IC50) on human tumor cell strain growth
Experimental: as §1, §2, §3, §4, §5, §6, §7

[5] = tested on: HL-60, human leukemic cell strain; experiment: IC50 test on tumor cells (MTT), HL-60; type: cell-based; conditions: HL-60, MTT, 48 h, read-out: Half Inhibitory concentrations (IC50) on human tumor cell strain growth
Experimental: as §1, §2, §3, §4, §5, §6, §7

[6] = Solubility (qualitative description); type: physicochemical
[7] = Acute toxicity test, observation and autopsy; type: in vivo; conditions: tail vein injection, immediately after dosing
Experimental: (§8) Animal lines: healthy mice, rats. Age was 7-9 weeks. In the same batch of tests, the initial body weight of mice or rats should not be greater or less than the average body weight by 20%.
(§9) Administration route: tail vein injection for both rats and mice.
(§10) Test observation: the observation was performed for one week after administered with the drug to be tested, the time of appearance and disappearance of various toxic reactions was carefully observed and recorded for each animal. The observation and recording were performed twice on the day of administering the drug to be tested, then once per day in the following days. The contents to be observed and recorded include skin, mucous membrane, coat color, eyes, respiration, circulation, behaviors of autonomic and central nervous systems, etc. Before the drug to be tested was administered, one week after the drug to be tested was administered, when the animal died, and when the test was ended, the animals were weighed to get their body weights. All animals, including dead or executed animals, were subjected to autopsy, and histopathologic examination was performed for organs with abnormal autopsy results.

[8] = tested on: human NCI-H460 nude mouse transplanted tumor; experiment: Activity against nude mouse-transplanted tumors; type: in vivo, female BALB/cA nude mice; conditions: 10 mg/kg intravenous, 3 times per week
Experimental: (§11) Test animals: female BALB/cA nude mice, 35-40 days, body weight 18-22 g, provided by Shanghai Slack, certificate no.: SCXK (Hu) 2007-0005. Divided into four groups:
Negative control group: 12 mice (intravenous injection with physiological saline, 3 times per week).
(§12) Administration group 1: 6 mice, intravenously administered with melonine C, in a dose of 20 mg/kg, 3 times per week.
(§13) Administration group 2: 6 mice, intravenously administered with melonine C, in a dose of 10 mg/kg, 3 times per week.
(§14) Administration group 3: 6 mice, intravenously administered with melonine C, in a dose of 2 mg/kg, 3 times per week.
Transplanted tumors: human NCI-H460 nude mouse transplanted tumor, established by subcutaneously inoculating human NCI-H460 cell strain to female BALB/c nude mice (from Shanghai Slack Co., Ltd.). Inoculated cell number was 3×10^6, the formed transplanted tumor after inoculation was then passaged 3 times in body of nude mice before use. […]
The well-grown tumor tissues were cut into 1.5 mm^3 pieces, inoculated into right-side armpit subcutaneously under sterile condition. The nude mouse transplanted tumore diameter was measured by vernier caliper, and the animals were grouped randomly when the tumore grew to 100-300 mm^3. […]

[9] = Acute toxicity test, mice; conditions: mouse, in vivo, intravenous, tail vein injection
Experimental: as §8, §9
(§15) Measurement of median lethal dose (LD50):
Maximum tolerated dose (MTD) test method: MTD refers to a dose that causes significant toxic reaction without death in animals.
as §10

[10] = Body weight of NCI-H460 tumor-bearing nude mice; type: in vivo, female BALB/cA nude mice; conditions: 20, 10 and 2 mg/kg intravenous, 3 times per week
Experimental: as §11, §12, §13, §14
The well-grown tumor tissues were cut into 1.5 mm^3 pieces, inoculated into right-side armpit subcutaneously under sterile condition. The nude mouse transplanted tumore diameter was measured by vernier caliper, and the animals were grouped randomly when the tumore grew to 100-300 mm^3. The antitumor effects of the compounds to be tested were observed by measuring tumor diameters. The number of measuring tumore diameters was 3 per week, and the mice were weighed simultaneously when each measurement was conducted. Melonine C was intravenously administered in doses of 20 mg/kg, 10 mg/kg, 2 mg/kg, separately, 3 times per week.

[11] = Acute toxicity test, rats; conditions: rat, in vivo, intravenous, tail vein injection
Experimental: as §8, §9, §15, §10

IC50 ([1]; Homo sapiens) [µM] | IC50 ([2]; Homo sapiens) [µM] | IC50 ([3]; Homo sapiens) [µM] | solubility in acetone [6] | solubility in chloroform ([6]; chloroform) | solubility in methanol [6] | solubility in water [6] | IC50 ([4]; Homo sapiens, SMMC-7721, 48 h) [µM] | IC50 ([5]; Homo sapiens) [µM] | SMILES | IC50 [1] [µM] | IC50 [2] [µM] | IC50 [3] [µM] | IC50 ([4]; 48 h) [µM] | IC50 [5] [µM] | toxic reactions observed [7] | relative tumor proliferation rate T/C (%) [8] [%] | LD50 at 1 week ([9]; mice) [mg/kg] | MTD at 1 week ([9]; printed on the mice line, read-out: MTD (maximum tolerated dose)) [mg/kg] | effect on the body weight [10] | LD50 at 1 week [11] [mg/kg]
15.4 | 22.1 | > 40 | Easily soluble | Easily soluble | Easily soluble | slightly soluble | 11.5 | 2.84 | CCC12CCCNC3=C(C(=O)C(=O)C=C3C3CC4(CC)CCCN5CCc6c(n3c3ccccc63)C54)C3=C1N(CCC2)CC3 (centres unmarked) [Melonine A, melonine A] |  |  |  |  |  |  |  |  |  |  | 
7.78 | 14.7 | 14.5 | slightly soluble |  | Easily soluble | slightly soluble | 7.4 | 2.53 | CCC12CCCN3CCc4c(n(c5ccccc45)C(c4cc5c(cc4O)N4CCCC6(CC)CCCN7CCC5(OC)C746)C1)C32 (centres unmarked) [Melonine B, melonine B] |  |  |  |  |  |  |  |  |  |  | 
23.2 | 11.1 | 23.4 | slightly soluble |  | Easily soluble | slightly soluble | 18.1 | 2.77 | CCC12CCCN3CCc4c(n(c5ccccc45)C(c4ccc(O)c5c4N=C4CCC6(CC)CCCN7CCC45C76)C1)C32 (centres unmarked) [Melonine D, melonine D] |  |  |  |  |  |  |  |  |  |  | 

Continued, molecule first:

SMILES | IC50 ([1]; Homo sapiens) [µM] | IC50 ([2]; Homo sapiens) [µM] | IC50 ([3]; Homo sapiens) [µM] | solubility in acetone [6] | solubility in chloroform ([6]; chloroform) | solubility in methanol [6] | solubility in water [6] | IC50 ([4]; Homo sapiens, SMMC-7721, 48 h) [µM] | IC50 ([5]; Homo sapiens) [µM] | IC50 [1] [µM] | IC50 [2] [µM] | IC50 [3] [µM] | IC50 ([4]; 48 h) [µM] | IC50 [5] [µM] | toxic reactions observed [7] | relative tumor proliferation rate T/C (%) [8] [%] | LD50 at 1 week ([9]; mice) [mg/kg] | MTD at 1 week ([9]; printed on the mice line, read-out: MTD (maximum tolerated dose)) [mg/kg] | effect on the body weight [10] | LD50 at 1 week [11] [mg/kg]
N.N.[Cl][Pt][Cl] [Cisplatine, Cisplatin, reference compound] |  |  |  |  |  |  |  |  |  | 22.5 | 26.5 | 19.5 | 14.1 | 0.75 |  |  |  |  |  | 
CCC12CCCN3CCc4c(n(c5ccccc45)C(c4ccc(O)c5c4NC4CCC6(CC)CCCN7CCC54C76)C1)C32 (centres unmarked) [Melonine C, melonine C] | 3.63 | 3.01 | 3.77 | slightly soluble |  | easily soluble | slightly soluble | 2.73 | 0.66 |  |  |  |  |  | accelerated breathing, ataxia, convulsions, or even died | 56.41 | 32 | 22 | no significant effect | 20
